Reference: ChEMBL document CHEMBL1201862, “PubChem BioAssay data set” (2004)
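96-well plates; 48 h exposure; 5 concentrations. Endpoints by linear interpolation between flanking doses. Not reached: highest tested concentration assigned. GI50: concentration for 50% inhibition of growth.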 Activity calls are given as the source filed them. No stated cut-off is given here; in the data, active = GI50 up to about 1.1 µM and inactive = higher.

Legend:
Assay in all cases: DTP human tumour cell line panel, 48 h
[1] = test system: 786-0
[2] = test system: A498
[3] = test system: A549
[4] = test system: ACHN
[5] = test system: COLO 205
[6] = test system: Hs-578T
[7] = test system: IGROV-1
[8] = test system: LOX IMVI
[9] = test system: MCF7
[10] = test system: MDA-MB-435
[11] = test system: MDA-N
[12] = test system: NCI-H226
[13] = test system: NCI-H23
[14] = test system: NCI/ADR-RES
[15] = test system: OVCAR-3
[16] = test system: OVCAR-5
[17] = test system: TK-10
[18] = test system: UACC-257
[19] = test system: UACC-62
[20] = test system: T47D

## Cc1cc(O)c2c(=O)c3ccccc3[nH]c2c1
[1]
  GI50: 15.6 µM (inactive)
[2]
  GI50: 32.8 µM (inactive)
[3]
  GI50: 29.4 µM (inactive)
[4]
  GI50: 21.5 µM (inactive)
[5]
  GI50: 13.2 µM (inactive)
[6]
  GI50: 45.3 µM (inactive)
[7]
  GI50: 13.3 µM (inactive)
[8]
  GI50: 18.8 µM (inactive)
[9]
  GI50: 0.133 µM (active)
[10]
  GI50: 27.4 µM (inactive)
[11]
  GI50: 42.9 µM (inactive)
[12]
  GI50: 23.1 µM (inactive)
[13]
  GI50: 15 µM (inactive)
[14]
  GI50: 23.5 µM (inactive)
[15]
  GI50: 29 µM (inactive)
[16]
  GI50: 18.9 µM (inactive)
[17]
  GI50: 49.2 µM (inactive)
[18]
  GI50: 20.1 µM (inactive)
[19]
  GI50: > 10 µM (inactive)

## O=c1[nH]nc(N/N=C\c2ccc(Cl)cc2)c2ccccc12
[1]
  GI50: 14.8 µM (inactive)
[2]
  GI50: 30.3 µM (inactive)
[3]
  GI50: 20.1 µM (inactive)
[4]
  GI50: 21.4 µM (inactive)
[5]
  GI50: 19.5 µM (inactive)
[6]
  GI50: 37 µM (inactive)
[7]
  GI50: 15.4 µM (inactive)
[9]
  GI50: 22.4 µM (inactive)
[10]
  GI50: 17.8 µM (inactive)
[12]
  GI50: 27.6 µM (inactive)
[13]
  GI50: 23 µM (inactive)
[14]
  GI50: 19.6 µM (inactive)
[15]
  GI50: 16 µM (inactive)
[16]
  GI50: 16.9 µM (inactive)
[20]
  GI50: 25.7 µM (inactive)
[17]
  GI50: 32.5 µM (inactive)
[18]
  GI50: 21.4 µM (inactive)
[19]
  GI50: 20.5 µM (inactive)

## OCCN(CCO)c1ccc2c(-c3ccccc3)cc(N(CCO)CCO)nc2n1
[1]
  GI50: > 100 µM (inactive)
[2]
  GI50: 54.2 µM (inactive)
[3]
  GI50: > 100 µM (inactive)
[4]
  GI50: > 100 µM (inactive)
[5]
  GI50: > 100 µM (inactive)
[6]
  GI50: > 100 µM (inactive)
[7]
  GI50: > 100 µM (inactive)
[9]
  GI50: > 100 µM (inactive)
[10]
  GI50: > 100 µM (inactive)
[12]
  GI50: > 100 µM (inactive)
[13]
  GI50: > 100 µM (inactive)
[14]
  GI50: > 100 µM (inactive)
[15]
  GI50: > 100 µM (inactive)
[16]
  GI50: > 100 µM (inactive)
[20]
  GI50: > 100 µM (inactive)
[17]
  GI50: > 100 µM (inactive)
[18]
  GI50: > 100 µM (inactive)
[19]
  GI50: > 100 µM (inactive)

## CN(CC(=O)O)c1ncc2c(n1)-c1ccccc1OC2
[1]
  GI50: > 100 µM (inactive)
[2]
  GI50: > 100 µM (inactive)
[3]
  GI50: > 100 µM (inactive)
[4]
  GI50: > 100 µM (inactive)
[5]
  GI50: > 100 µM (inactive)
[6]
  GI50: > 100 µM (inactive)
[7]
  GI50: > 100 µM (inactive)
[8]
  GI50: > 100 µM (inactive)
[9]
  GI50: > 100 µM (inactive)
[10]
  GI50: > 100 µM (inactive)
[11]
  GI50: > 100 µM (inactive)
[13]
  GI50: > 100 µM (inactive)
[14]
  GI50: > 100 µM (inactive)
[16]
  GI50: > 100 µM (inactive)
[17]
  GI50: > 100 µM (inactive)
[18]
  GI50: > 100 µM (inactive)
[19]
  GI50: > 100 µM (inactive)

## COc1cc2c(cc1OC)C(c1ccccc1CCCCl)=NCC2
[1]
  GI50: > 100 µM (inactive)
[2]
  GI50: > 100 µM (inactive)
[3]
  GI50: > 100 µM (inactive)
[4]
  GI50: > 100 µM (inactive)
[5]
  GI50: 40 µM (inactive)
[6]
  GI50: 69 µM (inactive)
[7]
  GI50: 33.9 µM (inactive)
[9]
  GI50: 95.5 µM (inactive)
[10]
  GI50: 10.8 µM (inactive)
[12]
  GI50: 80.4 µM (inactive)
[13]
  GI50: 42.5 µM (inactive)
[14]
  GI50: > 100 µM (inactive)
[15]
  GI50: > 100 µM (inactive)
[16]
  GI50: > 100 µM (inactive)
[20]
  GI50: 42.8 µM (inactive)
[17]
  GI50: > 100 µM (inactive)
[18]
  GI50: 53.1 µM (inactive)
[19]
  GI50: 40.9 µM (inactive)

## Cc1ccc(C(=O)CCC2C(=O)CC(C)(C)CC2=O)cc1
[1]
  GI50: > 100 µM (inactive)
[3]
  GI50: > 100 µM (inactive)
[4]
  GI50: > 100 µM (inactive)
[5]
  GI50: > 100 µM (inactive)
[6]
  GI50: > 100 µM (inactive)
[7]
  GI50: > 100 µM (inactive)
[8]
  GI50: > 100 µM (inactive)
[9]
  GI50: 53 µM (inactive)
[10]
  GI50: > 100 µM (inactive)
[11]
  GI50: > 100 µM (inactive)
[12]
  GI50: > 100 µM (inactive)
[13]
  GI50: > 100 µM (inactive)
[14]
  GI50: > 100 µM (inactive)
[15]
  GI50: > 100 µM (inactive)
[16]
  GI50: > 100 µM (inactive)
[17]
  GI50: > 100 µM (inactive)
[18]
  GI50: > 100 µM (inactive)
[19]
  GI50: > 100 µM (inactive)

## Cc1ccc(-n2cnc3c(N/N=C4\SCC(=O)N4c4ccccc4)ncnc32)cc1
[1]
  GI50: 3.15 µM (inactive)
[2]
  GI50: 14.2 µM (inactive)
[3]
  GI50: 11.9 µM (inactive)
[4]
  GI50: 5.78 µM (inactive)
[5]
  GI50: 4.98 µM (inactive)
[6]
  GI50: 3.85 µM (inactive)
[7]
  GI50: 4 µM (inactive)
[8]
  GI50: 2.54 µM (inactive)
[10]
  GI50: 2.02 µM (inactive)
[12]
  GI50: 4.02 µM (inactive)
[13]
  GI50: 3.37 µM (inactive)
[14]
  GI50: 8.36 µM (inactive)
[15]
  GI50: 3.13 µM (inactive)
[16]
  GI50: 12.2 µM (inactive)
[20]
  GI50: 3.97 µM (inactive)
[17]
  GI50: 3.63 µM (inactive)
[18]
  GI50: 3.87 µM (inactive)
[19]
  GI50: 4.37 µM (inactive)

## Cc1ccc(NC(=O)/C(CC2Nc3c(ccc4c3C(=O)c3ccccc3C4=O)NC2O)=N/NC(C)(C)C)cc1 (stereo unspecified)
[1]
  GI50: 4.52 µM (inactive)
[3]
  GI50: 16.1 µM (inactive)
[4]
  GI50: 12.4 µM (inactive)
[5]
  GI50: 21.5 µM (inactive)
[6]
  GI50: 9.4 µM (inactive)
[7]
  GI50: 8.07 µM (inactive)
[8]
  GI50: 7.23 µM (inactive)
[9]
  GI50: 23.7 µM (inactive)
[10]
  GI50: 17.7 µM (inactive)
[11]
  GI50: 14.1 µM (inactive)
[13]
  GI50: 17.7 µM (inactive)
[14]
  GI50: 1.67 µM (inactive)
[15]
  GI50: 18.7 µM (inactive)
[16]
  GI50: 26.5 µM (inactive)
[17]
  GI50: 7.66 µM (inactive)
[18]
  GI50: 16.1 µM (inactive)
[19]
  GI50: 11.9 µM (inactive)

## [O-][N+]1=[N+]([O-])[C@@H](c2ccccc2)[C@H]1c1ccccc1
[1]
  GI50: 13.5 µM (inactive)
[2]
  GI50: 27.1 µM (inactive)
[3]
  GI50: 19.5 µM (inactive)
[4]
  GI50: 17.6 µM (inactive)
[5]
  GI50: 19.3 µM (inactive)
[6]
  GI50: > 100 µM (inactive)
[7]
  GI50: 12.6 µM (inactive)
[8]
  GI50: 15.3 µM (inactive)
[9]
  GI50: 15.7 µM (inactive)
[10]
  GI50: 18.7 µM (inactive)
[11]
  GI50: 16.6 µM (inactive)
[12]
  GI50: 21.3 µM (inactive)
[13]
  GI50: 16.5 µM (inactive)
[14]
  GI50: 17.5 µM (inactive)
[15]
  GI50: 15.2 µM (inactive)
[16]
  GI50: 19.9 µM (inactive)
[17]
  GI50: 17 µM (inactive)
[18]
  GI50: 13.1 µM (inactive)
[19]
  GI50: 17.5 µM (inactive)

## COc1ccc(C2C=C(c3ccc4c(c3)OCO4)Oc3c2c(=O)oc2ccccc32)cc1OC (stereo unspecified)
[1]
  GI50: 0.43 µM (active)
[2]
  GI50: 0.502 µM (active)
[3]
  GI50: 1.05 µM (active)
[4]
  GI50: 0.627 µM (active)
[5]
  GI50: 0.361 µM (active)
[6]
  GI50: 0.513 µM (active)
[7]
  GI50: 0.634 µM (active)
[8]
  GI50: 0.593 µM (active)
[9]
  GI50: 0.434 µM (active)
[10]
  GI50: 0.152 µM (active)
[11]
  GI50: 0.15 µM (active)
[12]
  GI50: 0.258 µM (active)
[13]
  GI50: 0.446 µM (active)
[14]
  GI50: 0.543 µM (active)
[15]
  GI50: 0.475 µM (active)
[16]
  GI50: 0.556 µM (active)
[19]
  GI50: 0.294 µM (active)

## OC[C@@H](O)[C@H]1NC[C@@H](O)[C@H]1O
[1]
  GI50: > 100 µM (inactive)
[2]
  GI50: > 100 µM (inactive)
[3]
  GI50: > 100 µM (inactive)
[4]
  GI50: > 100 µM (inactive)
[5]
  GI50: > 100 µM (inactive)
[6]
  GI50: > 100 µM (inactive)
[7]
  GI50: > 100 µM (inactive)
[9]
  GI50: > 100 µM (inactive)
[10]
  GI50: > 100 µM (inactive)
[11]
  GI50: > 100 µM (inactive)
[13]
  GI50: > 100 µM (inactive)
[15]
  GI50: > 100 µM (inactive)
[16]
  GI50: > 100 µM (inactive)
[17]
  GI50: > 100 µM (inactive)
[18]
  GI50: > 100 µM (inactive)
[19]
  GI50: > 100 µM (inactive)

## COc1cc2c(cc1OCCCN1CCN(C)CC1)N=C[C@@H]1CCCN1C2=O
[1]
  GI50: 3.4 µM (inactive)
[2]
  GI50: 2.34 µM (inactive)
[3]
  GI50: 2.37 µM (inactive)
[4]
  GI50: 2.17 µM (inactive)
[5]
  GI50: 1.02 µM (active)
[6]
  GI50: 5.12 µM (inactive)
[8]
  GI50: 1.49 µM (inactive)
[9]
  GI50: 1.22 µM (inactive)
[10]
  GI50: 1.9 µM (inactive)
[12]
  GI50: 1.93 µM (inactive)
[14]
  GI50: 3.5 µM (inactive)
[15]
  GI50: 2.06 µM (inactive)
[16]
  GI50: 2.27 µM (inactive)
[17]
  GI50: 3.34 µM (inactive)
[18]
  GI50: 2.5 µM (inactive)
[19]
  GI50: 1.78 µM (inactive)
